Activity calls are given as the source filed them. The rule behind the calls is not given here.
Key:
[1] = Toxicity in female BALB/c nu/nu mouse xenografted with human A549 cells assessed as effect on liver at 5 mg/kg, iv by H and E staining based analysis; assay type: organism-based; settings: in vivo
[2] = Biodistribution in liver of nude mouse xenografted with A549 cells at 5 mg/kg, iv using chlorine e6 loaded self-assembled nanoparticle as source of compound incubated for 24 hrs by ex-vivo fluorescence based LC-MS/MS analysis; assay type: ADME, organism-based
HCT-116 = test: Anticancer activity against human HCT-116 cells assessed as cell viability incubated for 72 hrs using self assembled nanoparticle as source of compound by CCK-8 assay; assay type: functional, cell-based; settings: HCT-116, 72 h
A549 [3] = test: Induction of autophagy in human A549 cells transfected with mRFP-GFP-LC3 assessed as increase in red puncta at 0.5 uM incubated for 24 hrs by confocal microscopic analysis; assay type: functional, cell-based
A549 [4] = test: Induction of apoptosis in human A549 cells assessed as late apoptotic cells at 2 uM incubated for 24 hrs by Annexin V-FITC/PI staining based flow cytometric analysis (reference value: 2.18%); assay type: functional
[5] = biological target: T1, Protein deacetylase HDAC6 (Homo sapiens, UniProt Q9UBN7); test: Inhibition of recombinant human HDAC6 using Boc-Lys (acetyl)-AMC as substrate preincubated with compound for 1 hr followed by substrate addition and measured after 30 mins by microplate reader assay
T1 sequence (Q9UBN7 whole entry): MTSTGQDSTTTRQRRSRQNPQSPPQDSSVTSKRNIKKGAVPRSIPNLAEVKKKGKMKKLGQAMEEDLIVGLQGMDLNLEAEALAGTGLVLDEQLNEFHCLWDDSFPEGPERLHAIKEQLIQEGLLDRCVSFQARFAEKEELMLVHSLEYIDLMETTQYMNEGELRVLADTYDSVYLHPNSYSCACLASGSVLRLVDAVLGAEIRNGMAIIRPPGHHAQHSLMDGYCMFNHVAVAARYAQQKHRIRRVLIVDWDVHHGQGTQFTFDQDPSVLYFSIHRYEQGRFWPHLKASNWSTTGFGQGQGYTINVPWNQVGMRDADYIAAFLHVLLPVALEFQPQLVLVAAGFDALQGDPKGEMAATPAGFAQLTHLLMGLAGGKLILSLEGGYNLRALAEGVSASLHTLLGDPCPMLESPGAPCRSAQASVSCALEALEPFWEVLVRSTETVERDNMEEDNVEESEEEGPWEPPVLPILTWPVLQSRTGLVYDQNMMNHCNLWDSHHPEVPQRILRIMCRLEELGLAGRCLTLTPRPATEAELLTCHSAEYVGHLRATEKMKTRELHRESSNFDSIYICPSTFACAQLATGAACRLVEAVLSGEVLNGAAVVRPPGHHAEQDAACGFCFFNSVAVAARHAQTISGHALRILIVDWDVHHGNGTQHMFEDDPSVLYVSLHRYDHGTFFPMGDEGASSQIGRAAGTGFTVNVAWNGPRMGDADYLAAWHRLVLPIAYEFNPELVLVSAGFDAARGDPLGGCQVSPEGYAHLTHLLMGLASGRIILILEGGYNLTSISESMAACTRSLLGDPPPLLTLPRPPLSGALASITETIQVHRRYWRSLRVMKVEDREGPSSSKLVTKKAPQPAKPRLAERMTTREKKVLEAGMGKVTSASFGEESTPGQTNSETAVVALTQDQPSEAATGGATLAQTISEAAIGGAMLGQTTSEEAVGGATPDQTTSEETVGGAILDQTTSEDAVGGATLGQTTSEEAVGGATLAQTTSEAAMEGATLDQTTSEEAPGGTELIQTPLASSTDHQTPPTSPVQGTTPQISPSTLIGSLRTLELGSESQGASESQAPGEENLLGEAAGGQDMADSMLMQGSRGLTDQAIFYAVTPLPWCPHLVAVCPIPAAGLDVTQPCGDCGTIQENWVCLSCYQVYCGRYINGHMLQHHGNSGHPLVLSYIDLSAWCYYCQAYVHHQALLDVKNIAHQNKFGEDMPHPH

[6] = biological target: Polyamine deacetylase HDAC10 (Homo sapiens, UniProt Q969S8); test: Inhibition of recombinant human HDAC10 using Boc-Lys (trifluroacetyl)-AMC as substrate preincubated with compound for 1 hr followed by substrate addition and measured after 30 mins by microplate reader assay
Polyamine deacetylase HDAC10, sequence (Q969S8 whole entry): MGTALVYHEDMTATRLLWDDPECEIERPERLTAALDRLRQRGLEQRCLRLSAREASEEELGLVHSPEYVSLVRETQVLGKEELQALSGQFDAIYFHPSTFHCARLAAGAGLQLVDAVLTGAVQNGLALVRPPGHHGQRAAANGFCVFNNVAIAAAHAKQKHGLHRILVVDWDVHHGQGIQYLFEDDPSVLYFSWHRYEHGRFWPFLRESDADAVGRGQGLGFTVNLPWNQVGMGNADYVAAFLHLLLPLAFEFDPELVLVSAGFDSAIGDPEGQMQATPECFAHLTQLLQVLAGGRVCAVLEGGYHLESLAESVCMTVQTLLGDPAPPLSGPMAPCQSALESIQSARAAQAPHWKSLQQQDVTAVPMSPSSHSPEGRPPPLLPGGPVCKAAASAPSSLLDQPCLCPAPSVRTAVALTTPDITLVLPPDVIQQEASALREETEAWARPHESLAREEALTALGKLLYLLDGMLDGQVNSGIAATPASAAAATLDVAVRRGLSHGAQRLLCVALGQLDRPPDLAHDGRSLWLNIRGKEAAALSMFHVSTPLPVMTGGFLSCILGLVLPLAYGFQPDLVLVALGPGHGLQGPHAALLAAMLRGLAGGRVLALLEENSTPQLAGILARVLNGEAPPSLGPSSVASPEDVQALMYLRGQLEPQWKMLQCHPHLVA

A549 [7] = test: In vivo antitumor activity against human A549 cells xenografted in female BALB/c nu/nu mouse assessed as reduction in tumor weight at 5 mg/kg, iv administered every 3 days for 18 days using self assembled nanoparticle as source of compound and measured every 3 days; settings: time 3.0 day
[8] = Toxicity in female BALB/c nu/nu mouse xenografted with human A549 cells assessed as effect on liver at 2.5 mg/kg, iv by H and E staining based analysis; assay type: organism-based; settings: in vivo
A549 [9] = test: In vivo antitumor activity against human A549 cells xenografted in female BALB/c nu/nu mouse assessed as decrease in STAT3 phosphorylation level at 5 mg/kg, iv administered every 3 days for 9 days by Western blotting analysis; assay type: functional, organism-based; settings: time 3.0 day
A549 [10] = test: Induction of apoptosis in human A549 cells at 2 uM incubated for 24 hrs by Annexin V-FITC/PI staining based flow cytometric analysis; assay type: functional
A549 [11] = test: In vivo antitumor activity against human A549 cells xenografted in female BALB/c nu/nu mouse assessed as Ac-tubulin at 5 mg/kg, iv administered every 3 days for 9 days by Western blotting analysis; assay type: functional, organism-based; settings: time 3.0 day
HeLa = test: Anticancer activity against human HeLa cells assessed as cell viability incubated for 72 hrs using self assembled nanoparticle as source of compound by CCK-8 assay; assay type: functional, cell-based
Histone deacetylase 4 = Histone deacetylase 4 (Homo sapiens, UniProt P56524); test: Inhibition of recombinant human HDAC4 using Boc-Lys (trifluroacetyl)-AMC as substrate preincubated with compound for 1 hr followed by substrate addition and measured after 30 mins by microplate reader assay
Histone deacetylase 4, sequence (P56524 whole entry): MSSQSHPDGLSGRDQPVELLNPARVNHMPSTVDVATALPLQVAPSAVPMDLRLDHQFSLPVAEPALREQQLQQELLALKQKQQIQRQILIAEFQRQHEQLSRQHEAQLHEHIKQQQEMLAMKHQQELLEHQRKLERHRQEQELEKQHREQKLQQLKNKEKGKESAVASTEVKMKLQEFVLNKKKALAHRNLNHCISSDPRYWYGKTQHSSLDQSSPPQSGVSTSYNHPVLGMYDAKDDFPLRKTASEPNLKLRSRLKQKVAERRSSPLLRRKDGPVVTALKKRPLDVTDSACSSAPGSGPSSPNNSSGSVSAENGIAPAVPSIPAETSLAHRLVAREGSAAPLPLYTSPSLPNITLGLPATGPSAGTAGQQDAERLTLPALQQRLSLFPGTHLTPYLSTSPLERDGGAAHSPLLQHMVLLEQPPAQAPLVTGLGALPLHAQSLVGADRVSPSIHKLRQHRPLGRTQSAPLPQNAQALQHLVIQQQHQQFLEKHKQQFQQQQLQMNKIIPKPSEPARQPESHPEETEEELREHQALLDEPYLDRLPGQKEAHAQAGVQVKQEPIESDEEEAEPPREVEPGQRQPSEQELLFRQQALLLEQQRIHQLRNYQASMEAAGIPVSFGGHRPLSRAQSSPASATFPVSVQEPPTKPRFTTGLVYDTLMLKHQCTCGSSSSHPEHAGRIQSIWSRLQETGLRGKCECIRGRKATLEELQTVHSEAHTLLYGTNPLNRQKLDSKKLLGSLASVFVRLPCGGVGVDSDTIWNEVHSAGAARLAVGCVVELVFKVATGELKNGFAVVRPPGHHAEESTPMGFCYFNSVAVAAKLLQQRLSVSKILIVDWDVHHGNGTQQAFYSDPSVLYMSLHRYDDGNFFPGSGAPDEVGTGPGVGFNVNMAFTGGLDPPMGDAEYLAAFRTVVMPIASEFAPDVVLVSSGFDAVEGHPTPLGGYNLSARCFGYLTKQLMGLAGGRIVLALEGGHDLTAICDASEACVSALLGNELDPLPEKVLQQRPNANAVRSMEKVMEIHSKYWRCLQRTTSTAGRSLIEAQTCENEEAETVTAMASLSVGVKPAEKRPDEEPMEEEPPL

[12] = biological target: Signal transducer and activator of transcription 3 (Homo sapiens, UniProt P40763); test: Inhibition of STAT3 phosphorylation in human A549 cells at 0.1 to 8 uM incubated for 12 hrs by Western blot analysis; assay type: cell-based; settings: dose 0.1-8 µM
Signal transducer and activator of transcription 3, sequence (P40763 whole entry): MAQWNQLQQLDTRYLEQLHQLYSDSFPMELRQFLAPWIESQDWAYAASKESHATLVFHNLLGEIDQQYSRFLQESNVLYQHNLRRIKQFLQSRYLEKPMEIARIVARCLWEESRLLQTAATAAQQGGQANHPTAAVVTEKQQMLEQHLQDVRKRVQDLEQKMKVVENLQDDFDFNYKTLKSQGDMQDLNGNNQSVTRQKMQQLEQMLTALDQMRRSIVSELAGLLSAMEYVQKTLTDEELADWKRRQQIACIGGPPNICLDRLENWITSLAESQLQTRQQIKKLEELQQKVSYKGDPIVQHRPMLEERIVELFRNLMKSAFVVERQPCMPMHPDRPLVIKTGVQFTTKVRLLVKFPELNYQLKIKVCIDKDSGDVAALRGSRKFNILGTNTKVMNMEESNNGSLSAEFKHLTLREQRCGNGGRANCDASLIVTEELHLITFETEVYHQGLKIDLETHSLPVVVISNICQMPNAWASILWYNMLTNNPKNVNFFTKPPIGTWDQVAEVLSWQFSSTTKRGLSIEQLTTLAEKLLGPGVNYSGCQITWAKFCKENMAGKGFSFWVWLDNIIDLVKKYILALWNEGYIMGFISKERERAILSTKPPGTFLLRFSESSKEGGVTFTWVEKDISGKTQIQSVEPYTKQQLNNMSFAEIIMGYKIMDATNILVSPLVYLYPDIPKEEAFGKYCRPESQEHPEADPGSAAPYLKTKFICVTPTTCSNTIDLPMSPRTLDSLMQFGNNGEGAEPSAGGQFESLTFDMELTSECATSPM

A549 [13] = test: Induction of apoptosis in human A549 cells assessed as viable cells at 2 uM incubated for 24 hrs by Annexin V-FITC/PI staining based flow cytometric analysis (reference value: 95.08%); assay type: functional; settings: Homo sapiens, A549, read-out: Activity
Histone deacetylase 11 = Histone deacetylase 11 (Homo sapiens, UniProt Q96DB2); test: Inhibition of recombinant human HDAC11 using Boc-Lys (trifluroacetyl)-AMC as substrate preincubated with compound for 1 hr followed by substrate addition and measured after 30 mins by microplate reader assay
Histone deacetylase 11, sequence (Q96DB2 whole entry): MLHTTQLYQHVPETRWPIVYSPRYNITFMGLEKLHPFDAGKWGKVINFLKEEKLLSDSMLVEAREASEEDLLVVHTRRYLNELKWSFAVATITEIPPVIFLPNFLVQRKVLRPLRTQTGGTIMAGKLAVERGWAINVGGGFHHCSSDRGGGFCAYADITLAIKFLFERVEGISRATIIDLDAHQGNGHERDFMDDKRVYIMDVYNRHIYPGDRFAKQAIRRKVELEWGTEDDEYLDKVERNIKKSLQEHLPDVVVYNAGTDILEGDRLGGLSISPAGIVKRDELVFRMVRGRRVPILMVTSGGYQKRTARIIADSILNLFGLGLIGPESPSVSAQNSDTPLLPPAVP

Histone deacetylase 7 = Histone deacetylase 7 (Homo sapiens, UniProt Q8WUI4); test: Inhibition of recombinant human HDAC7 using Boc-Lys (trifluroacetyl)-AMC as substrate preincubated with compound for 1 hr followed by substrate addition and measured after 30 mins by microplate reader assay
Histone deacetylase 7, sequence (Q8WUI4 whole entry): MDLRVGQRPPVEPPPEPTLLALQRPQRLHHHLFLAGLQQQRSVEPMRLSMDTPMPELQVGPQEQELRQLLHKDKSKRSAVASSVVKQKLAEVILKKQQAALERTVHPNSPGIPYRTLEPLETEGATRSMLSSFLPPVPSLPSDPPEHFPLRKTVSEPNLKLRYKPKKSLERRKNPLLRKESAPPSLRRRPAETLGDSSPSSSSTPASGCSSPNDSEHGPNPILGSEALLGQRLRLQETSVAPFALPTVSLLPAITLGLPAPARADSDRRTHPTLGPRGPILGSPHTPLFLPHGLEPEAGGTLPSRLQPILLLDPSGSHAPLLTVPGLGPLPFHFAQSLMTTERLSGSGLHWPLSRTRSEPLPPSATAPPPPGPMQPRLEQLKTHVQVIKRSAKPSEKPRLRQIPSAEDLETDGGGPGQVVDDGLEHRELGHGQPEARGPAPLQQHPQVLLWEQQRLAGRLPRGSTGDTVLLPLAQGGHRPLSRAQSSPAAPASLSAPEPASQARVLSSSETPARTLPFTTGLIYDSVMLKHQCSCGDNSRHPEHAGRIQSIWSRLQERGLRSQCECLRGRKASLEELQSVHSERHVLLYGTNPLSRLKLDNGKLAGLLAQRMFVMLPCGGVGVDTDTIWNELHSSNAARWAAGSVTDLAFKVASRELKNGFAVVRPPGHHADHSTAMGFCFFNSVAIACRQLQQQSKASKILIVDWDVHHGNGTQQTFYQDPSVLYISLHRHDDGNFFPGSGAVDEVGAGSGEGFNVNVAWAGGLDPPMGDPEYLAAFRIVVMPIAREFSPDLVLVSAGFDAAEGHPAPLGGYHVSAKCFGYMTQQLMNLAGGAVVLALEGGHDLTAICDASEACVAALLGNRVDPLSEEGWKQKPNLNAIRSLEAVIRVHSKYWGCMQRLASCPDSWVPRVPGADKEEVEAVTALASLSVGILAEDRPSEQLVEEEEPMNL

A549 [14] = test: Effect on Bcl-2 protein level in human A549 cells at 4 uM incubated for 12 hrs by Western blot analysis; assay type: functional, cell-based
[15] = Toxicity in female BALB/c nu/nu mouse xenografted with human A549 cells assessed as effect on body weight at 2.5 mg/kg, iv and measured regularly; assay type: organism-based; settings: in vivo

For `C=C1C(=O)O[C@@H]2C[C@@]3(C)CC[C@@H](OC(=O)[C@H](C)NC(=O)c4ccc(/C=C/C(=O)NO)cc4)C(=C)[C@@H]3C[C@H]12`, the Activity [1] was “Non-Toxic”, the Drug uptake [2] was “Active” and the IC50 (HCT-116) was 0.023 µM. For the same molecule, the Activity (A549 [3]) was “Active”, the Activity (A549 [4]) was 11.86% and the IC50 [5] was 0.00769 µM. The IC50 [6] was 0.0574 µM, the Activity (A549 [7]) was “Active” and the Activity [8] was “Non-Toxic”. For the same molecule, the Activity (A549 [9]) was “Active”, the Activity (A549 [10]) was 15% and the Activity (A549 [11]) was “Active”. For the same molecule, the IC50 (HeLa) was 0.072 µM, the IC50 (Histone deacetylase 4) was greater than 10 µM and the inhibition [12] was “Active”. For the same molecule, the viability at 2 µM (A549 [13]) was 82.5%, the IC50 (Histone deacetylase 11) was 0.265 µM and the IC50 (Histone deacetylase 7) was greater than 10 µM. The Activity (A549 [14]) was “inactive” and the Activity [15] was “Non-Toxic”.

— ChEMBL document CHEMBL6071142, “Isoalantolactone/hydroxamic acid hybrids as potent dual STAT3/HDAC inhibitors and self-assembled nanoparticles for cancer therapy” (Eur J Med Chem, 2024)
